Drawing on ChEMBL document CHEMBL1153477, “Synthesis and biological evaluation of 3,6-diamino-1H-pyrazolo[3,4-b]pyridine derivatives as protein kinase inhibitors” (Bioorg Med Chem Lett, 2009), this text covers IC50 for 14 compounds.

The IC50 is the concentration at which inhibition is half-maximal.

Test [1] addresses Glycogen synthase kinase-3 (Sus scrofa, UniProt B2LUN4+I6LNT8). The test can be described thus: Inhibition of pig GSK3alpha/beta.
Test [2] addresses Cyclin-dependent kinase 5/CDK5 activator 1 (Homo sapiens, UniProt Q00535). As to the kind of experiment: Inhibition of human recombinant CDK5/P25 by scintillation counting. In kind it is protein-complex assay.
For test [3], the target named is Dual specificity tyrosine-phosphorylation-regulated kinase 1A (Homo sapiens, UniProt Q13627). As to the kind of experiment: Inhibition of human recombinant GST-fusion DYRK1A expressed in Escherichia coli.

Chain of Cyclin-dependent kinase 5/CDK5 activator 1 (Q00535 whole entry, the tested form may be a part): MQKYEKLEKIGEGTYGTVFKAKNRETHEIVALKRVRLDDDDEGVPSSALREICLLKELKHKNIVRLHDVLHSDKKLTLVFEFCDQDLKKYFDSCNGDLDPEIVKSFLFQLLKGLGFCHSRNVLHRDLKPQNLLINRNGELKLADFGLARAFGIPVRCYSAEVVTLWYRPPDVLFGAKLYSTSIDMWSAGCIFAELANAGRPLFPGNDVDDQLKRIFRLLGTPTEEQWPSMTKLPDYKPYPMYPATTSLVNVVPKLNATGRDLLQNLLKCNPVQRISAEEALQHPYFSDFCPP
Chain of Cyclin-dependent kinase 5/CDK5 activator 1 (Q15078 whole entry, further chain, the tested form may be a part): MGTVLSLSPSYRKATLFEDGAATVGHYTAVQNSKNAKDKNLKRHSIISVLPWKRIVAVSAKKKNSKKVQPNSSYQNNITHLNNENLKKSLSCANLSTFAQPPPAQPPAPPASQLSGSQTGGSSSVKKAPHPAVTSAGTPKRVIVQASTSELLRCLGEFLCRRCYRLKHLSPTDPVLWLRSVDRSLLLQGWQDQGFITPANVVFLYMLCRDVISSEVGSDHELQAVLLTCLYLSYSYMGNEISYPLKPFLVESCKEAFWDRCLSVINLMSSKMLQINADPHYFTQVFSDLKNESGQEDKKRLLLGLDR

For the compound `CC(=O)Nc1nn(C)c2nc(N)c(C#N)c(-c3ccccc3)c12`, the IC50 in test [1], in test [2] and in test [3] was > 10 µM throughout.

Turning to `Cn1nc(N)c2c(-c3ccccc3)c(C#N)c(N)nc21`, the IC50 in test [1], in test [2] and in test [3] was > 10 µM throughout.

On to `COc1nc(NNC(C)=O)c(C#N)c(-c2ccccc2)c1C#N`, for which the IC50 in test [1], in test [2] and in test [3] was > 10 µM throughout.

As for `Cn1nc(N)c2cc(C#N)c(N)nc21`, the half-inhibitory concentration (IC50) in test [1], in test [2] and in test [3] was > 10 µM throughout.

Regarding `CC(=O)Nc1nn(C)c2nc(N)c(C#N)cc12`, the IC50 in test [1], in test [2] and in test [3] was > 10 µM throughout.

Take `N#Cc1c(Cl)nc2[nH]nc(N)c2c1-c1ccccc1`: the IC50 in test [1], in test [2] and in test [3] was > 10 µM throughout.

`N#Cc1c(N)nc2[nH]nc(N)c2c1-c1ccccc1`: the IC50 in test [1] stood at 1.5 µM; in test [2], 0.41 µM; in test [3], 11 µM.

As to `N#Cc1cc2c(N)n[nH]c2nc1N`, the half-inhibitory concentration (IC50) in test [1], in test [2] and in test [3] was > 10 µM throughout.

Consider `CC(=O)Nc1nc2[nH]nc(NC(C)=O)c2cc1C#N`, for which the IC50 in test [1], in test [2] and in test [3] was > 10 µM each time.

For the compound `N#Cc1c(N2CCOCC2)nc2[nH]nc(N)c2c1-c1ccccc1`, the half-inhibitory concentration (IC50) in test [1], in test [2] and in test [3] was > 10 µM in each case.

Regarding `COc1nc(NN)c(C#N)c(-c2ccccc2)c1C#N`, the IC50 in test [1], in test [2] and in test [3] was > 10 µM throughout.

For the compound `N#Cc1cc2c(N)n(-c3ccccc3)nc2nc1N`, the IC50 in test [1], in test [2] and in test [3] was > 10 µM throughout.

On to `CC(=O)n1nc(N)c2c(-c3ccccc3)c(C#N)c(N)nc21`, for which the concentration for half-maximal inhibition (IC50) in test [1], in test [2] and in test [3] was > 10 µM in each case.

Take `CC(=O)Nc1nc2nn(-c3ccccc3)c(NC(C)=O)c2cc1C#N`: the IC50 in test [1], in test [2] and in test [3] was > 10 µM in each case.
